Experimental findings from US10227357B2, “Compounds and methods for kinase modulation, and indications therefor” (Plexxikon Inc., priority 2012, dated 2019) are described below.

Structures are written as SMILES.

T1 sequence (P10721 with tags, fused parts or gaps DEL694-753/D816V): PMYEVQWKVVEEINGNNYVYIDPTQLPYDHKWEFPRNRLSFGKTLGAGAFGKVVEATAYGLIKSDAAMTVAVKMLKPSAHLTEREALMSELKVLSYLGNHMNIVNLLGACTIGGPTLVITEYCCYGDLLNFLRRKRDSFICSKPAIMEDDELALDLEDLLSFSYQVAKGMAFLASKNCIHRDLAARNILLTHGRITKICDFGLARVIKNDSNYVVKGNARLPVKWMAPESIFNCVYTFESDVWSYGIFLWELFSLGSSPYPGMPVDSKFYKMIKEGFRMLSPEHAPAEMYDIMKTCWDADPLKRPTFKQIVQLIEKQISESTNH

The assay concerns the target T1, c-kit mutant D816V (Homo sapiens, UniProt P10721, D816V/DEL694-753).
T1 construct: residues 551-934, kinase insertion domain residues 694-753 deleted; 6x-histidine (N); made in house; host or cells: E. coli Arctic Express (DE3) RIL (Stratagene)
Briefly: c-Kit mutant D816V biochemical assay, AlphaScreen. The settings on record: c-kit D816V biochemical inhibitory activity; read-out: Biochemical activity (IC50 μM) Kit D816V. The method, boiled down:
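Purified His-tagged c-Kit D816V (E. coli-expressed) assayed in 25 mM HEPES pH 7.2 with Mg/Mn, 5% DMSO and 10 μM ATP, 30 min at room temperature, 8-point 1:3 dilutions. Phosphorylation detected by AlphaScreen with streptavidin donor and PY20 acceptor beads; IC50 from signal versus concentration.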
For `Cc1cc2c(C3=CCC(NS(=O)(=O)c4ccc(OC(C)C)cc4)CC3)ncnc2[nH]1` (stereo not drawn) [P-0652, 4-isopropoxy-N-[4-(6-methyl-7H-pyrrolo[2,3-d]pyrimidin-4-yl)cyclohex-3-en-1-yl]benzenesulfonamide], the IC50 was in the range of 1 to 10 µM.
The figure for `Cc1cc2c(C3=CCC(NS(=O)(=O)c4ccc(OC(F)F)cc4)CC3)ncnc2[nH]1` (stereo not drawn) [P-0653, 4-(difluoromethoxy)-N-[4-(6-methyl-7H-pyrrolo[2,3-d]pyrimidin-4-yl)cyclohex-3-en-1-yl]benzenesulfonamide] is 1 to 10 µM; for `Cc1cc2c(N3CCC(NS(=O)(=O)c4ccc(OC(F)F)cc4)CC3)ncnc2[nH]1` [P-0656, 4-(difluoromethoxy)-N-[1-(6-methyl-7H-pyrrolo[2,3-d]pyrimidin-4-yl)-4-piperidyl]benzenesulfonamide] it is 10 to 200 µM; for `Cc1cc2c(N3CCC(NS(=O)(=O)c4ccc(C(C)C)cc4)CC3)ncnc2[nH]1` [P-0657, 4-isopropyl-N-[1-(6-methyl-7H-pyrrolo[2,3-d]pyrimidin-4-yl)-4-piperidyl]benzenesulfonamide] it is 10 to 200 µM.
The figure for `CCCc1ccc(S(=O)(=O)NC2CCN(c3ncnc4[nH]c(C)cc34)CC2)cc1` [P-0658, N-[1-(6-methyl-7H-pyrrolo[2,3-d]pyrimidin-4-yl)-4-piperidyl]-4-propyl-benzenesulfonamide] is 1 to 10 µM; for `Cc1ccc(S(=O)(=O)NC2CCN(c3ncnc4[nH]c(-c5cn(C)nc5C)cc34)CC2)cc1` [P-0659, N-[1-[6-(1,3-dimethylpyrazol-4-yl)-7H-pyrrolo[2,3-d]pyrimidin-4-yl]-4-piperidyl]-4-methyl-benzenesulfonamide] it is 0.0001 to 1 µM; for `COc1cc(-c2cc3c(N4CCC(NS(=O)(=O)c5ccc(C)cc5)CC4)ncnc3[nH]2)ccn1` [P-0660, N-[1-[6-(2-methoxy-4-pyridyl)-7H-pyrrolo[2,3-d]pyrimidin-4-yl]-4-piperidyl]-4-methyl-benzenesulfonamide] it is 0.0001 to 1 µM.
The figure for `Cc1csc(-c2cc3c(N4CCC(NS(=O)(=O)c5ccc(OC(F)(F)F)cc5)CC4)ncnc3[nH]2)c1` [P-0661, N-[1-[6-(4-methyl-2-thienyl)-7H-pyrrolo[2,3-d]pyrimidin-4-yl]-4-piperidyl]-4-(trifluoromethoxy)benzenesulfonamide] is 10 to 200 µM; for `CC1(C)C=C(c2cc3c(N4CCC(NS(=O)(=O)c5ccc(OC(F)(F)F)cc5)CC4)ncnc3[nH]2)CC(C)(C)O1` [P-0663, N-[1-[6-(2,2,6,6-tetramethyl-3H-pyran-4-yl)-7H-pyrrolo[2,3-d]pyrimidin-4-yl]-4-piperidyl]-4-(trifluoromethoxy)benzenesulfonamide] it is 10 to 200 µM; for `COc1cc(-c2cc3c(N4CCC(NS(=O)(=O)c5ccc(Cl)cc5)CC4)ncnc3[nH]2)ccn1` [P-0666, 4-chloro-N-[1-[6-(2-methoxy-4-pyridyl)-7H-pyrrolo[2,3-d]pyrimidin-4-yl]-4-piperidyl]benzenesulfonamide] it is 0.0001 to 1 µM.
As for `C[C@H](NC(=O)N1CCN(c2ncnc3ccsc23)CC1(C)C)c1cccc(Cl)c1` [P-0677, N-[(1S)-1-(3-chlorophenyl)ethyl]-2,2-dimethyl-4-thieno[3,2-d]pyrimidin-4-yl-piperazine-1-carboxamide], the IC50 lay in the range of 1 to 10 µM.
To `CC(C)(NC(=O)N1CCN(c2ncnc3cc(-c4ccc(F)cc4)sc23)CC1(C)C)c1ccccc1` [P-0678, 4-[6-(4-fluorophenyl)thieno[3,2-d]pyrimidin-4-yl]-2,2-dimethyl-N-(1-methyl-1-phenyl-ethyl)piperazine-1-carboxamide] belongs 1 to 10 µM; to `C[C@H](NC(=O)N1CCN(c2ncnc3[nH]c(-c4ccc(C#N)cc4)cc23)CC1(C)C)c1ccc(F)cc1` [P-0685, 4-[6-(4-cyanophenyl)-7H-pyrrolo[2,3-d]pyrimidin-4-yl]-N-[(1S)-1-(4-fluorophenyl)ethyl]-2,2-dimethyl-piperazine-1-carboxamide], 1 to 10 µM; to `C[C@H](NC(=O)N1CCN(c2ncnc3[nH]c(-c4ccc(C#N)cc4)cc23)CC1(C)C)c1ccc(Cl)cc1` [P-0686, N-[(1S)-1-(4-chlorophenyl)ethyl]-4-[6-(4-cyanophenyl)-7H-pyrrolo[2,3-d]pyrimidin-4-yl]-2,2-dimethyl-piperazine-1-carboxamide], 10 to 200 µM.
On to `C[C@H](NC(=O)N1CCN(c2ncnc3[nH]c(-c4ccc(C#N)cc4)cc23)C[C@H]1C)c1cccc(F)c1` [P-0693, (2R)-4-[6-(4-cyanophenyl)-7H-pyrrolo[2,3-d]pyrimidin-4-yl]-N-[(1S)-1-(3-fluorophenyl)ethyl]-2-methyl-piperazine-1-carboxamide], for which the IC50 is 0.0001 to 1 µM.
The figure for `C[C@H](NC(=O)N1CCN(c2ncnc3[nH]c(-c4ccc(C#N)cc4)cc23)CC1)c1ccc(F)cc1` [P-0696, 4-[6-(4-cyanophenyl)-7H-pyrrolo[2,3-d]pyrimidin-4-yl]-N-[(1S)-1-(4-fluorophenyl)ethyl]piperazine-1-carboxamide] is 0.0001 to 1 µM; for `C[C@H](NC(=O)N1CCN(c2ncnc3[nH]c(-c4ccc(C#N)cc4)cc23)CC1(C)C)c1cccc(OC(F)F)c1` [P-0698, 4-[6-(4-cyanophenyl)-7H-pyrrolo[2,3-d]pyrimidin-4-yl]-N-[(1S)-1-[3-(difluoromethoxy)phenyl]ethyl]-2,2-dimethyl-piperazine-1-carboxamide] it is 0.0001 to 1 µM.
To `C[C@H](NC(=O)N1CCN(c2ncnc3[nH]c(-c4ccc(C#N)cc4)cc23)C[C@H]1C)c1cccc(OC(F)F)c1` [P-0699, (2R)-4-[6-(4-cyanophenyl)-7H-pyrrolo[2,3-d]pyrimidin-4-yl]-N-[(1S)-1-[3-(difluoromethoxy)phenyl]ethyl]-2-methyl-piperazine-1-carboxamide] belongs 0.0001 to 1 µM; to `C[C@H](NC(=O)N1CCN(c2ncnc3[nH]c(-c4ccc(F)cc4)cc23)C[C@H]1C)c1cccc(Cl)c1` [P-0701, (2R)-N-[(1S)-1-(3-chlorophenyl)ethyl]-4-[6-(4-fluorophenyl)-7H-pyrrolo[2,3-d]pyrimidin-4-yl]-2-methyl-piperazine-1-carboxamide], 0.0001 to 1 µM.
To `C[C@H](NC(=O)N1CCN(c2ncnc3[nH]c(-c4ccc(C#N)cc4)cc23)CC1)c1ccc(Cl)cc1` [P-0702, N-[(1S)-1-(4-chlorophenyl)ethyl]-4-[6-(4-cyanophenyl)-7H-pyrrolo[2,3-d]pyrimidin-4-yl]piperazine-1-carboxamide] belongs 0.0001 to 1 µM; to `Cc1ccc(C(C)NC(=O)N2CCN(c3ncnc4cc(-c5ccc(F)cc5)sc34)CC2)s1` (stereo not drawn) [P-0703, 4-[6-(4-fluorophenyl)thieno[3,2-d]pyrimidin-4-yl]-N-[1-(5-methyl-2-thienyl)ethyl]piperazine-1-carboxamide], 0.0001 to 1 µM.
Consider `Cc1nn(C)cc1-c1cc2ncnc(N3CC4CCC3CN4C(=O)N[C@H](C)c3ccc(F)cc3)c2s1` (stereo partly drawn) [P-0704, 5-[6-(1,3-dimethylpyrazol-4-yl)thieno[3,2-d]pyrimidin-4-yl]-N-[(1R)-1-(4-fluorophenyl)ethyl]-2,5-diazabicyclo[2.2.2]octane-2-carboxamide], for which the IC50 lay within 0.0001 to 1 µM.
The figure for `COc1cc(-c2cc3c(N4CCN(C(=O)N[C@@H](C)c5cccc(Cl)c5)[C@H](C)C4)ncnc3[nH]2)ccn1` [P-0711, (2R)-N-[(1S)-1-(3-chlorophenyl)ethyl]-4-[6-(2-methoxy-4-pyridyl)-7H-pyrrolo[2,3-d]pyrimidin-4-yl]-2-methyl-piperazine-1-carboxamide] is 0.0001 to 1 µM; for `Cc1ccc([C@H](C)NC(=O)N2CCN(c3ncnc4[nH]c(-c5ccc(F)cc5)cc34)CC2)cc1` [P-0713, 4-[6-(4-fluorophenyl)-7H-pyrrolo[2,3-d]pyrimidin-4-yl]-N-[(1S)-1-(p-tolyl)ethyl]piperazine-1-carboxamide] it is 0.0001 to 1 µM.
